According to patent publication US20120316245A1, “CO-CRYSTALS OF AGOMELATINE, A PROCESS FOR THERE PREPARATION AND PHARMACEUTICAL COMPOSITIONS CONTAINING THEM” (LES LABORATOIRES SERVIER, priority 2011, published 2012):

Assay: Measurement of the dissolution rate of the co-crystals (tDISS apparatus, pION)
Format: physicochemical
Details: 37° C., stirring speed 700 rpm
Description: The results obtained are collated in the following tables and are expressed as percentage increases in the dissolution rate of the co-crystal compared to the dissolution rate obtained for agomelatine of form II contained in the marketed Valdoxan® form: [formula]

| SMILES | percentage increase in the dissolution rate of the co-crystal compared to agomelatine of form II (Valdoxan) (0.01 N HCl) | percentage increase in the dissolution rate of the co-crystal compared to agomelatine of form II (Valdoxan) (pH 6.8 buffer) |
| --- | --- | --- |
| COc1ccc2cccc(CCNC(C)=O)c2c1.O=C(O)C=CC(=O)O [Compound of Example 3, Co-Crystal of Agomelatine/Maleic Acid (1/1)] | −26% | −4% |
| COc1ccc2cccc(CCNC(C)=O)c2c1.O=C(O)CC(O)(CC(=O)O)C(=O)O [Compound of Example 1, Co-Crystal of Agomelatine/Citric Acid (1/1)] | +25% | +70% |
| COc1ccc2cccc(CCNC(C)=O)c2c1.O=C(O)CCC(=O)C(=O)O [Compound of Example 9, Co-Crystal of Agomelatine/Ketoglutaric Acid (1/1)] | −47% | −32% |
| COc1ccc2cccc(CCNC(C)=O)c2c1.COc1ccc2cccc(CCNC(C)=O)c2c1.O=C(O)C(=O)O [Compound of Example 7, Co-Crystal of Agomelatine/Oxalic Acid (2/1)] | +1.5% | +33% |
| COc1ccc2cccc(CCNC(C)=O)c2c1.O=C(O)CO [Compound of Example 10, Co-Crystal of Agomelatine/Glycolic Acid (1/1)] | −30% | −30% |
| COc1ccc2cccc(CCNC(C)=O)c2c1.COc1ccc2cccc(CCNC(C)=O)c2c1.O=C(O)c1cc(O)c(O)c(O)c1 [Compound of Example 2, Co-Crystal of Agomelatine/Gallic Acid (2/1)] | +37% | +29% |
| COc1ccc2cccc(CCNC(C)=O)c2c1.COc1ccc2cccc(CCNC(C)=O)c2c1.O=C(O)c1ccc(O)cc1 [Compound of Example 5, Co-Crystal of Agomelatine/Para-Hydroxybenzoic Acid (2/1)] | +97% | +89% |
| COc1ccc2cccc(CCNC(C)=O)c2c1.O=C(O)CCCC(=O)O [Compound of Example 8, Co-Crystal of Agomelatine/Glutaric Acid (1/1)] | −42% | −29% |
| COc1ccc2cccc(CCNC(C)=O)c2c1.O=C(O)c1ccc(O)cc1.O=C(O)c1ccc(O)cc1 [Compound of Example 6, Co-Crystal of Agomelatine/Para-Hydroxybenzoic Acid (1/2)] | +19% | +46% |
| COc1ccc2cccc(CCNC(C)=O)c2c1.O=C(O)CC(=O)O [Compound of Example 4, Co-Crystal of Agomelatine/Malonic Acid (1/1)] | −55% | −21% |
